The values below come from PubChem BioAssay (NCI).

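Where inhibition never reached the appropriate level, the endpoint shown equals the highest concentration tested. Otherwise, values were interpolated linearly from a five-concentration, 48-hour dose response in 96-well plates. Abbreviation: GI50, concentration required for 50% inhibition of growth. TGI marks complete inhibition of growth.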 A value given as a limit tells only on which side of the number the result lay.

Among the test systems are SK-MEL-28 melanoma; 786-0 renal; SK-MEL-5 melanoma; MCF7 breast; MDA-MB-231 breast; UACC-62 melanoma; SN12C renal; OVCAR-4 ovarian; MDA-MB-435; HCT-116 colon.
Common to all, as to assay: NCI-60 cell line screen, 48 h

For `C[C@H]1CCC/C=C/[C@@H]2C[C@H](O)C[C@H]2[C@H](O)[C@@H](S(=O)CCN(C)C)CC(=O)O1` (some centres not stated), the GI50 in the assay on SK-MEL-28 melanoma is 0.586 µM; in the assay with 786-0 renal it was 0.0416 µM; with SK-MEL-5 melanoma it was 0.0374 µM; in the assay with MCF7 breast, 0.147 µM; in the assay on MDA-MB-231 breast, 0.114 µM; in the assay with UACC-62 melanoma, 0.0667 µM. Moreover, the GI50 is 0.256 µM with SN12C renal, 0.219 µM in the assay with OVCAR-4 ovarian, 0.193 µM in the assay on MDA-MB-435 and 0.279 µM with HCT-116 colon. Besides, the TGI with SK-MEL-28 melanoma is more than 100 µM; in the assay on SK-MEL-5 melanoma, 0.131 µM; in the assay on MDA-MB-231 breast, 0.458 µM; in the assay with UACC-62 melanoma it was more than 100 µM; with OVCAR-4 ovarian it was more than 100 µM; with MDA-MB-435, more than 100 µM. Besides, the TGI in the assay with HCT-116 colon was 1.19 µM.

As for `C=C(CN1CCc2ccccc2C1)c1ccc(C(=O)Nc2ccc(N)cc2)cc1`, the GI50 was 24.9 µM in the assay with SK-MEL-28 melanoma; 22.9 µM with 786-0 renal; 16.3 µM in the assay on SK-MEL-5 melanoma; 14.8 µM with MCF7 breast; 20.5 µM in the assay with MDA-MB-231 breast; 22.1 µM in the assay with UACC-62 melanoma. For the same compound, the GI50 in the assay with SN12C renal was 30.1 µM; in the assay with OVCAR-4 ovarian, 40.7 µM; in the assay on MDA-MB-435, 3.11 µM; in the assay on HCT-116 colon it was 11.9 µM. Moreover, the TGI in the assay on SK-MEL-28 melanoma was 72.5 µM; in the assay with 786-0 renal, more than 100 µM; in the assay on SK-MEL-5 melanoma, 30.9 µM; with MCF7 breast it was more than 100 µM; in the assay with MDA-MB-231 breast, more than 100 µM; with UACC-62 melanoma it was more than 100 µM. Moreover, the TGI is more than 100 µM in the assay with SN12C renal, more than 100 µM in the assay with OVCAR-4 ovarian, 11.3 µM in the assay on MDA-MB-435 and more than 100 µM in the assay with HCT-116 colon.

Regarding `CC(C)(O)C1OCC(C2CCC3(C)C4=CCC5C(C)(C)C(O)CCC5(C)C4CCC23C)CC1O` (configuration not stated), the TGI was found to be 29.2 µM in the assay on SK-MEL-28 melanoma; 27.3 µM in the assay on 786-0 renal; 27.8 µM in the assay with SK-MEL-5 melanoma; 23.8 µM with MCF7 breast; 28.6 µM in the assay with MDA-MB-231 breast; 29.5 µM in the assay on UACC-62 melanoma. Further, the TGI in the assay on SN12C renal was found to be 27.5 µM; with OVCAR-4 ovarian it was 27.5 µM; with MDA-MB-435 it was 28.8 µM; in the assay on HCT-116 colon it was 27.6 µM.

Regarding `COc1ccc(-c2nc(-c3cn(C)c4ncccc34)cs2)cc1`, the GI50 is 79.3 µM with SK-MEL-28 melanoma; 51.5 µM in the assay on 786-0 renal; 16.9 µM in the assay on SK-MEL-5 melanoma; 12.5 µM with MCF7 breast; 75.3 µM in the assay on MDA-MB-231 breast; 13 µM in the assay on UACC-62 melanoma. The GI50 in the assay with SN12C renal is more than 100 µM; in the assay with OVCAR-4 ovarian, more than 100 µM; with MDA-MB-435, 2.79 µM; in the assay on HCT-116 colon, 38.4 µM. In addition, the TGI in the assay with SK-MEL-28 melanoma, in the assay on 786-0 renal, in the assay with SK-MEL-5 melanoma, with MCF7 breast, in the assay on MDA-MB-231 breast and in the assay with UACC-62 melanoma was more than 100 µM in each case. In addition, the TGI in the assay with SN12C renal, in the assay with OVCAR-4 ovarian, in the assay on MDA-MB-435 and with HCT-116 colon was more than 100 µM each time.

For `CCN(CC)CCCCCCCNc1c2ccc(Cl)cc2nc2ccc(OC)cc12`, the GI50 in the assay with SK-MEL-28 melanoma was 1.91 µM; in the assay with 786-0 renal, 0.902 µM; in the assay on SK-MEL-5 melanoma, 1.68 µM; with MCF7 breast it was 0.356 µM; in the assay with MDA-MB-231 breast, 1.48 µM; in the assay on UACC-62 melanoma it was 2.04 µM. The GI50 is 1.22 µM in the assay on SN12C renal, 0.913 µM in the assay with OVCAR-4 ovarian, 1.43 µM in the assay with MDA-MB-435 and 0.285 µM with HCT-116 colon. In addition, the TGI in the assay with SK-MEL-28 melanoma worked out at 3.64 µM; in the assay on 786-0 renal, 2.35 µM; in the assay with SK-MEL-5 melanoma, 3.09 µM; in the assay with MCF7 breast, 1.59 µM; in the assay on MDA-MB-231 breast, 3.86 µM; with UACC-62 melanoma, 4.09 µM. For the same compound, the TGI in the assay with SN12C renal was determined as 5.36 µM; in the assay with OVCAR-4 ovarian, 2.9 µM; with MDA-MB-435, 3.16 µM; in the assay on HCT-116 colon, 0.801 µM.

Turning to `Cn1c(=O)c2[nH]c(CS(=O)(=O)Cc3nc4c([nH]3)c(=O)n(C)c(=O)n4C)nc2n(C)c1=O`, the TGI with SK-MEL-28 melanoma, with 786-0 renal, with SK-MEL-5 melanoma, in the assay on MCF7 breast, in the assay on MDA-MB-231 breast and with UACC-62 melanoma was more than 100 µM each time. Further, the TGI in the assay with SN12C renal, in the assay with OVCAR-4 ovarian, in the assay on MDA-MB-435 and in the assay with HCT-116 colon was more than 100 µM throughout.

As for `O=C(NOCC1CC1)c1ccc(F)c(F)c1Nc1ccc(I)cc1Cl`, the GI50 was 0.0526 µM with SK-MEL-28 melanoma; 2.7 µM with 786-0 renal; 1.15 µM in the assay with SK-MEL-5 melanoma; 3.11 µM with MCF7 breast; 0.672 µM in the assay with MDA-MB-231 breast; 0.064 µM in the assay with UACC-62 melanoma. Further, the GI50 is 1.63 µM in the assay on SN12C renal, 1.81 µM in the assay on OVCAR-4 ovarian, 0.298 µM in the assay with MDA-MB-435 and 0.641 µM in the assay with HCT-116 colon. For the same compound, the TGI in the assay on SK-MEL-28 melanoma is 0.812 µM; in the assay on 786-0 renal, more than 35.1 µM; in the assay on SK-MEL-5 melanoma it was 5.83 µM; in the assay with MCF7 breast it was 19.1 µM; in the assay with MDA-MB-231 breast it was 14.7 µM; in the assay on UACC-62 melanoma it was 1.41 µM. Besides, the TGI with SN12C renal was more than 100 µM; in the assay with OVCAR-4 ovarian it was 17.7 µM; with MDA-MB-435, more than 55.5 µM; in the assay on HCT-116 colon, 9.06 µM.

As to `N=C(N)CCCCCCCCC(=N)N`, the GI50 with SK-MEL-28 melanoma was 58.1 µM; in the assay with 786-0 renal, more than 100 µM; in the assay on SK-MEL-5 melanoma, 38.2 µM; in the assay with MCF7 breast, 25.7 µM; with MDA-MB-231 breast it was 63.3 µM; in the assay with UACC-62 melanoma it was 64.8 µM. The GI50 was 25.7 µM with SN12C renal, 44.4 µM in the assay on OVCAR-4 ovarian, more than 100 µM with MDA-MB-435 and 22.8 µM in the assay with HCT-116 colon. For the same compound, the TGI with SK-MEL-28 melanoma, with 786-0 renal, in the assay with SK-MEL-5 melanoma, in the assay on MCF7 breast, with MDA-MB-231 breast and in the assay on UACC-62 melanoma was more than 100 µM each time. Further, the TGI in the assay with SN12C renal, with OVCAR-4 ovarian, with MDA-MB-435 and in the assay with HCT-116 colon was more than 100 µM in each case.
